Source: PMC11530130, “Peripherally restricted PICK1 inhibitor mPD5 ameliorates pain behaviors in murine inflammatory and neuropathic pain models” (JCI Insight, 2024)
Where “and” joins values, the source holds several entries; their conditions need not be identical. Equal entries are not always repeated.

Assays:
[1] = tested on: mice, spared nerve injury (SNI) model; experiment: SNI model 18 weeks after surgery, von Frey, sustained s.c. administration; type: in vivo, mouse; design: von Frey threshold, Fig 7C, individual mice: unit not given here; settings: for duration of effect on mechanical hypersensitivity: SNI 18 weeks after surgery
Method: Repeated and sustained administration of mPD5 in the SNI model. […]
For the first experiment with sustained administration of mPD5 (Figure 7C), the mice underwent a baseline von Frey reading as described in the “Mechanically-evoked pain (von Frey).”-section and SNI surgery as described in “Induction of neuropathic pain (SNI model).”-section. Approximately 18 weeks (125 days) after SNI surgery, hyperalgesia was confirmed with von Frey. On the same day, mice were injected s.c. with 10 μmol/kg mPD5 and evoked pain was tested again at 1 hour after injection. Then, mice were injected s.c. with either 2+2+2 μmol/kg mPD5 (group A) or PBS (group B) once an hour for 3 hours. At 4,5 hours after the 10 μmol/kg mPD5 injection paw withdrawal threshold was measured again followed by a s.c. injection of 2 μmol/kg mPD5 in all animals. The PWT was measured again at 6 hours +7 hours + 8 hours + 9 hours + 10 hours + 11 hours + 22 hours + 23 hours + 25 hours + 27 hours + 49 hours + 121 hours after the initial 10 μmol/kg mPD5 injection performed on day 125. […]

[2] = tested on: mice, CFA model of inflammatory pain; experiment: CFA model of inflammatory pain, von Frey, i.t. administration; type: in vivo, mouse; settings: CFA day 2, i.t. 20 μM, 7 μL
Method: Unless otherwise specified, wild type C57BL/6NRj mice (male and female, aged eight-weeks at the beginning of experiment) were used (Janvier, France). Animals were allowed at least seven days of habituation to the animal facility before initiation of experiment. Mice were group-housed in a temperature-controlled room, maintained on a 12/12hour light/dark cycle (lights on at 6 A.M) with free access to standard rodent chow (Altromin 1342 (Brogaarden, […]
Drug administration and dosing for animal experiments.
All compounds were diluted in PBS or saline (depending on control) and administered through different routes i.t. (7 μL/mouse)), i.p. (10 μL/g) or s.c. (10 μL/g)) as indicated. Doses of mPD5 were based on previous studies with TPD5 (6) with a subcutaneous dose-range included in the CFA studies further guiding dose selection for SNI, STZ and CIBP studies. Pregabalin dose was chosen based on previous experience from Phenotype Expertise (Marseilles, France). In the CIBP model, a dose of […] morphine was chosen to avoid hyperactivity, though known to provide only partial pain relief in this model. In remaining experiments, 5 mg/kg morphine was chosen, known to provide full pain relief, except for the conditioned place preference experiment, where 10 mg/kg was used instead in accordance with literature. […]

SMILES: CCCCCCCCCCCCCC(=O)N(CCOCCOCCC(=O)N[C@@H](Cc1c[nH]cn1)C(=O)N[C@@H](Cc1c[nH]c2ccccc12)C(=O)N[C@@H](CC(C)C)C(=O)N[C@@H](CCCCN)C(=O)N[C@H](C(=O)O)C(C)C)CCOCCOCCC(=O)N[C@@H](Cc1c[nH]cn1)C(=O)N[C@@H](Cc1c[nH]c2ccccc12)C(=O)N[C@@H](CC(C)C)C(=O)N[C@@H](CCCCN)C(=O)N[C@H](C(=O)O)C(C)C [mPD5, myristoyl-NPEG4-(HWLKV)2]
- von Frey threshold, contralateral paw, Fig 7C, individual mice ([1]; A-contra, time 9 post første inj og time 4 post sidste inj): 1.4 (3×) and 1 (5×)
- von Frey threshold, contralateral paw, Fig 7C, individual mice ([1]; A-contra, time 10 post første inj og time 5 post sidste inj): 1 (4×) and 1.4 (3×) and 0.6
- von Frey threshold, contralateral paw, Fig 7C, individual mice ([1]; A-contra, time 11 post første inj og time 6 post sidste inj): 1.4 (2×) and 2 (2×) and 1 (4×)
- von Frey threshold, contralateral paw, Fig 7C, individual mice ([1]; A-contra, time 22 post første inj og time 17 post sidste inj): 1.4 (4×) and 0.6 and 1 (3×)
- von Frey threshold, contralateral paw, Fig 7C, individual mice ([1]; A-contra, time 23 post første inj og time 18 post sidste inj): 1.4 (6×) and 0.6 and 1
- von Frey threshold, contralateral paw, Fig 7C, individual mice ([1]; A-contra, time 25 post første inj og time 20 post sidste inj): 1 (7×) and 1.4
- von Frey threshold, contralateral paw, Fig 7C, individual mice ([1]; A-contra, time 27 post første inj og time 22 post sidste inj): 1.4 (3×) and 1
- von Frey threshold, contralateral paw, Fig 7C, individual mice ([1]; B-contra, time 9 post første inj og time 4 post sidste inj): 1 (4×) and 1.4 (3×) and 2
- von Frey threshold, contralateral paw, Fig 7C, individual mice ([1]; B-contra, time 10 post første inj og time 5 post sidste inj): 1.4 (4×) and 2 (2×) and 1 (2×)
- von Frey threshold, contralateral paw, Fig 7C, individual mice ([1]; B-contra, time 11 post første inj og time 6 post sidste inj): 1 (2×) and 2 (2×) and 1.4 (4×)
- von Frey threshold, contralateral paw, Fig 7C, individual mice ([1]; B-contra, time 22 post første inj og time 17 post sidste inj): 1.4 (3×) and 1 (2×) and 2 (3×)
- von Frey threshold, contralateral paw, Fig 7C, individual mice ([1]; B-contra, time 23 post første inj og time 18 post sidste inj): 1 (2×) and 2 (3×) and 1.4 (2×) and 0.6
- von Frey threshold, contralateral paw, Fig 7C, individual mice ([1]; B-contra, time 25 post første inj og time 20 post sidste inj): 1.4 (5×) and 1 and 2 and 0.6
- duration of effect on mechanical hypersensitivity ([1]; 10 + 2 + 2 + 2 + 2 μmol/kg s.c., 1 hour between injections (Group A), from first injection): 25 h
- duration of effect on mechanical hypersensitivity ([1]; without consecutive administration (reference, 10 + 0 + 0 + 0 + 2 μmol/kg)): 1 h
- von Frey threshold, Fig 7C, individual mice ([1]; group A, time 9 post første inj og time 4 post sidste inj): 2 and 1.4 and 0.6 and 0.4 (2×) and 1 (3×)
- von Frey threshold, Fig 7C, individual mice ([1]; group A, time 10 post første inj og time 5 post sidste inj): 1.4 (2×) and 2 and 0.4 (3×) and 0.6 and 1
- von Frey threshold, Fig 7C, individual mice ([1]; group A, time 11 post første inj og time 6 post sidste inj): 1.4 and 1 (3×) and 0.16 and 0.4 and 0.6 (2×)
- von Frey threshold, Fig 7C, individual mice ([1]; group A, time 22 post første inj og time 17 post sidste inj): 0.6 (2×) and 1 (2×) and 0.16 (2×) and 0.4 and 1.4
- von Frey threshold, Fig 7C, individual mice ([1]; group A, time 23 post første inj og time 18 post sidste inj): 1.4 and 0.6 (2×) and 0.16 and 0.07 (2×) and 1 and 0.4
- von Frey threshold, Fig 7C, individual mice ([1]; group A, time 25 post første inj og time 20 post sidste inj): 0.16 (2×) and 2 and 0.6 (3×) and 0.4 and 1.4
- von Frey threshold, Fig 7C, individual mice ([1]; group A, time 27 post første inj og time 22 post sidste inj): 0.4
- von Frey threshold, Fig 7C, individual mice ([1]; group B, time 9 post første inj og time 4 post sidste inj): 1 and 0.4 (3×) and 0.07 (2×) and 0.6 and 0.16
- von Frey threshold, Fig 7C, individual mice ([1]; group B, time 10 post første inj og time 5 post sidste inj): 0.4 (3×) and 0.16 (2×) and 0.07 (3×)
- von Frey threshold, Fig 7C, individual mice ([1]; group B, time 11 post første inj og time 6 post sidste inj): 0.4 (2×) and 0.16 (3×) and 0.07 (3×)
- von Frey threshold, Fig 7C, individual mice ([1]; group B, time 22 post første inj og time 17 post sidste inj): 0.16 (5×) and 0.07 (3×)
- von Frey threshold, Fig 7C, individual mice ([1]; group B, time 23 post første inj og time 18 post sidste inj): 0.16 (3×) and 0.4 (2×) and 0.07 (3×)
- von Frey threshold, Fig 7C, individual mice ([1]; group B, time 25 post første inj og time 20 post sidste inj): 0.6 and 0.16 (4×) and 0.4 and 0.07 (2×)
- von Frey threshold, Fig 7C, individual mice ([1]; group B, time 27 post første inj og time 22 post sidste inj): 0.6 and 0.07 and 0.16
- effect on mechanical hypersensitivity (PWT) ([2]; 1 hour and 5 hours after administration): significant relief of mechanical hypersensitivity
- effect on mechanical hypersensitivity (PWT) ([2]; 24 hours after administration): no effect
